Where two headings read alike, the source gives them in different places.
Legend:
[1] = target: T1, PfNT1 (Plasmodium falciparum, UniProt Q8IDM6); test: cell-based; format: cell-based; details: PfNT1 oocytes, total [3H]CQ transport, normalised to the oocyte type control
T1 construct: expressed in transfected cells; host or cells: Xenopus laevis oocytes (stage V-VI), cRNA-injected
Summary of the method: (§1)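 Transport measured in Xenopus oocytes expressing the transporters, 1.5 h at 27.5 °C in ND96 pH 5.5 unless noted. For trans-stimulation, VF-6 injected in 25 nL ND96 at pH 5.0–7.0 or Na^+-free (choline) buffer; intracellular levels based on ~400 nL oocyte volume. Ten oocytes per treatment, ≥4 experiments.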

[2] = target: T2, PfCRT^3D7 (Plasmodium falciparum, UniProt Q8IBZ9); test: cell-based; format: cell-based; details: PfCRT3D7 oocytes; for Uptake of [3H]CQ (% PfCRT3D7 control), trans-stimulation: total [3H]CQ transport, normalised to the oocyte type control; for PfCRT-mediated [3H]CQ transport, trans-stimulation (% PfCRT3D7 control): normalised to oocyte type control
Summary of the method: as §1

[3] = target: T3, PfCRT^Dd2 (Plasmodium falciparum, UniProt Q9N623, A220S/I356T/K76T/M74I/N326S/N75E/Q271E/R371I); test: cell-based; format: cell-based; details: for Uptake of [3H]CQ (% PfCRTDd2 control), trans-stimulation / PfCRT-mediated [3H]CQ transport, trans-stimulation (% PfCRTDd2 control): PfCRTDd2 oocytes; for Uptake of [3H]CQ (% PfCRTDd2 control), trans-stimulation: total [3H]CQ transport, normalised to the oocyte type control; for PfCRT-mediated [3H]CQ transport, trans-stimulation (% PfCRTDd2 control): normalised to oocyte type control; for [3H]CQ transport (% PfCRTDd2 control), trans-stimulation, PfCRTDd2: PfCRT-mediated component (background subtracted), mean ± SEM, SEM
Summary of the method: as §1

[4] = target: T4, PfCRT^Ecu1110 (Plasmodium falciparum, UniProt Q9N623, A220S/I356L/K76T/N326D); test: cell-based; format: cell-based; details: for Uptake of [3H]CQ (% PfCRTEcu1110 control), trans-stimulation / PfCRT-mediated [3H]CQ transport, trans-stimulation (% PfCRTEcu1110 control): PfCRTEcu1110 oocytes; for Uptake of [3H]CQ (% PfCRTEcu1110 control), trans-stimulation: total [3H]CQ transport, normalised to the oocyte type control; for PfCRT-mediated [3H]CQ transport, trans-stimulation (% PfCRTEcu1110 control): normalised to oocyte type control; for [3H]CQ transport (% PfCRTDd2 control), trans-stimulation, PfCRTEcu1110: PfCRT-mediated component (background subtracted), sheet title says normalised to PfCRTDd2 control, mean ± SEM, SEM
Summary of the method: as §1

[5] = target: T2, PfCRT^3D7; test: cell-based; format: cell-based; details: PfCRT3D7 oocytes, total [3H]CQ transport, normalised to the oocyte type control
From the text: (§2) The orientation of PfCRT in the parasite’s DV membrane, and also in the oocyte plasma membrane, is such that its N- and C-termini extend into the cytosol. The oocytes were suspended in a reaction buffer adjusted to pH 5.5 to mimic the pH of the DV lumen[1],[2]. In this scenario, the transport of a substrate via PfCRT from the acidic extracellular solution into the oocyte cytosol[15] is analogous to the parasite’s PfCRT-mediated efflux of a substrate from the acidic DV and into the cytosol. Unless specified otherwise, this is the direction in which substrate transport was measured in the oocyte assays.
(§3) Unless specified otherwise, the transport assays were conducted over 1.5 h at 27.5 °C and the reaction buffer was ND96 (96 mM NaCl, 2 mM KCl, 1 mM MgCl2, 1.8 mM CaCl2, 10 mM MES and 10 mM Tris-base) at pH 5.5.
(§4) Ten oocytes were washed twice with the relevant ND96 buffer. […] The assay was terminated by removing the reaction buffer and washing the oocytes with ice-cold ND96 buffer. The oocytes were lysed in 10% (w/v) sodium dodecyl sulfate (SDS) and the radioactivity accumulated within each oocyte was measured with a MicroBeta^2 microplate liquid scintillation analyser (PerkinElmer).
(§5) At least four independent experiments were performed (on different days and using oocytes from different frogs), and within each experiment measurements were made from ten oocytes per treatment.

[6] = test system: non-expressing oocytes; test: cells; format: cell-based, Xenopus laevis; details: non-expressing oocytes, total [3H]CQ transport, normalised to the oocyte type control
From the text: as §2, §3, §4, §5

[7] = test system: non-expressing oocytes; format: cell-based, Xenopus laevis; details: non-expressing oocytes, total [3H]CQ transport, normalised to the oocyte type control
Summary of the method: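 Oocytes (ten per treatment, ≥4 independent frogs/days) were preloaded by injecting VF-6 in 25 nL ND96 at pH 5.0, 5.5, 6.0 or 7.0, or Na^+-free choline buffer, then uptake run 1.5 h, 27.5 °C, ND96 pH 5.5 by default. Internal concentrations assumed ~400 nL oocyte volume.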

[8] = target: T3, PfCRT^Dd2; test: [3H]CQ uptake into Xenopus oocytes, cis-inhibition by unlabelled solute; format: cell-based; details: PfCRTDd2 oocytes, background [3H]CQ accumulation subtracted, normalised to oocyte type control
Summary of the method: (§6)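 Radioactivity accumulated per oocyte, read by liquid scintillation after 10% SDS lysis, served as the uptake measure. Incubations ran 1.5 h at 27.5 °C in ND96 at pH 5.5, matching digestive-vacuole acidity.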

[9] = target: T4, PfCRT^Ecu1110; test: as above; format: cell-based; details: for Uptake of [3H]CQ (% PfCRTEcu1110 control), cis-inhibition / PfCRT-mediated [3H]CQ transport, cis-inhibition (% PfCRTEcu1110 control): PfCRTEcu1110 oocytes; for Uptake of [3H]CQ (% PfCRTEcu1110 control), cis-inhibition: total [3H]CQ transport, normalised to the oocyte type control; for PfCRT-mediated [3H]CQ transport, cis-inhibition (% PfCRTEcu1110 control): background [3H]CQ accumulation subtracted, normalised to oocyte type control
Summary of the method: as §6

[10] = [test solute]i = 45 mM (30 mM for some solutes due to solubility)
[11] = [test solute]i = 5 mM (intracellular)
[12] = [test solute]i = 45 mM (intracellular; 30 mM for some solutes due to solubility)
[13] = [test solute]i = 5 mM (injected)

T2 sequence (Q8IBZ9 59-398): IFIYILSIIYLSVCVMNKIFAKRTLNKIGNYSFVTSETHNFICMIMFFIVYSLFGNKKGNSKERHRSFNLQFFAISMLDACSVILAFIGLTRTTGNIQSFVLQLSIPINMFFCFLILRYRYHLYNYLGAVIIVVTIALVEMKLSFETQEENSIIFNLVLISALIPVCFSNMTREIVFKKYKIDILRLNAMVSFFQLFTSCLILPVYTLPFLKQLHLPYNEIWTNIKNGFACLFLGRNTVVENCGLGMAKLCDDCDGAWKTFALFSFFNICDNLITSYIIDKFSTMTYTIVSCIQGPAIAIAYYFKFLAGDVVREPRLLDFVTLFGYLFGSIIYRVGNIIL
T3 sequence (Q9N623 whole entry A220S/I356T/K76T/M74I/N326S/N75E/Q271E/R371I): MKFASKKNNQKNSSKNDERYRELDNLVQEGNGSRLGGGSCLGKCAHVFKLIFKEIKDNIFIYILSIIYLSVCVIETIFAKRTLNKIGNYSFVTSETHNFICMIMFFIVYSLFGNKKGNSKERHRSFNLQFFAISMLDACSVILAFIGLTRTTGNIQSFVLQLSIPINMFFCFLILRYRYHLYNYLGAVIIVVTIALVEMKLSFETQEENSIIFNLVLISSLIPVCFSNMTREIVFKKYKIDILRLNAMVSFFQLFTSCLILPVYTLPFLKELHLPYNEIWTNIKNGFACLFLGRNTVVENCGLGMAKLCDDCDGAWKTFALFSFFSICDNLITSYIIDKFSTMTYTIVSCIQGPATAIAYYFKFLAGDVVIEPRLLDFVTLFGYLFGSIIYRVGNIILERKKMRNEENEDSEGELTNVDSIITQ
T4 sequence (Q9N623 whole entry A220S/I356L/K76T/N326D): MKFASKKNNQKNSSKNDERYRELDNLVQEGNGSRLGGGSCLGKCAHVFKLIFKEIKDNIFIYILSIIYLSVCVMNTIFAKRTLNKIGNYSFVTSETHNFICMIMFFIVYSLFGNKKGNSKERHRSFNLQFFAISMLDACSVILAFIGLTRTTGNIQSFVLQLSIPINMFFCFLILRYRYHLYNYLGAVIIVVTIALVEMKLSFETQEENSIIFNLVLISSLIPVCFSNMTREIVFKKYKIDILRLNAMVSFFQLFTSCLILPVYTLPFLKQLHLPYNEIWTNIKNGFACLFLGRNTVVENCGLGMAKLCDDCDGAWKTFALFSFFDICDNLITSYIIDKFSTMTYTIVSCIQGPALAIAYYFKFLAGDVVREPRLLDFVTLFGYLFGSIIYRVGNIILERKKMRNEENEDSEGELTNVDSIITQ
T1 sequence (Q8IDM6 whole entry): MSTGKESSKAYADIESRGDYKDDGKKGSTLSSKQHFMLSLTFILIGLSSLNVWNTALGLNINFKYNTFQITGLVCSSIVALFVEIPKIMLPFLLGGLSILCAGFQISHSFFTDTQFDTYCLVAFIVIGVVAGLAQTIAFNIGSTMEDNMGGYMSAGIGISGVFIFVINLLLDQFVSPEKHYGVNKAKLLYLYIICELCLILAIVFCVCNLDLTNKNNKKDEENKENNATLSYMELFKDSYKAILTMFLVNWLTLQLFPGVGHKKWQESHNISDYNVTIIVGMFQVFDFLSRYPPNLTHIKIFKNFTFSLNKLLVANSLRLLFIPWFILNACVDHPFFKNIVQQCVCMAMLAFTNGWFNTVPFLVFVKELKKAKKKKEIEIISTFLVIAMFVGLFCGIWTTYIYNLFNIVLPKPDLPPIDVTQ

PPVQ [PQ-4]
Uptake of [3H]CQ (% PfNT1 control), trans-stimulation ([1]; [test solute]i = 5 mM): 100 ± 2.5 % PfNT1 control
Uptake of [3H]CQ (% PfNT1 control), trans-stimulation [1, 10]: 99 ± 3.2 % PfNT1 control
Uptake of [3H]CQ (% PfCRT3D7 control), trans-stimulation ([2]; [test solute]i = 5 mM): 134 ± 2.5 % PfCRT3D7 control
Uptake of [3H]CQ (% PfCRT3D7 control), trans-stimulation [2, 10]: 165 ± 4.2 % PfCRT3D7 control
PfCRT-mediated [3H]CQ transport, trans-stimulation (% PfCRT3D7 control) [2, 11]: 129 ± 2.1 % PfCRT3D7 control
PfCRT-mediated [3H]CQ transport, trans-stimulation (% PfCRT3D7 control) [2, 12]: 159 ± 5.2 % PfCRT3D7 control
Uptake of [3H]CQ (% PfCRTDd2 control), trans-stimulation ([3]; [test solute]i = 5 mM): 100 ± 3.2 % PfCRTDd2 control
Uptake of [3H]CQ (% PfCRTDd2 control), trans-stimulation [3, 10]: 115 ± 2.9 % PfCRTDd2 control
PfCRT-mediated [3H]CQ transport, trans-stimulation (% PfCRTDd2 control) [3, 11]: 98 ± 4.2 % PfCRTDd2 control
PfCRT-mediated [3H]CQ transport, trans-stimulation (% PfCRTDd2 control) [3, 12]: 110 ± 1.1 % PfCRTDd2 control
[3H]CQ transport (% PfCRTDd2 control), trans-stimulation, PfCRTDd2 [3, 13]: 98 ± 4.2 % PfCRTDd2 control
[3H]CQ transport (% PfCRTDd2 control), trans-stimulation, PfCRTDd2 [3, 10]: 110 ± 1.1 % PfCRTDd2 control
Uptake of [3H]CQ (% PfCRTEcu1110 control), trans-stimulation ([4]; [test solute]i = 5 mM): 124 ± 2.9 % PfCRTEcu1110 control
Uptake of [3H]CQ (% PfCRTEcu1110 control), trans-stimulation [4, 10]: 138 ± 3.2 % PfCRTEcu1110 control
PfCRT-mediated [3H]CQ transport, trans-stimulation (% PfCRTEcu1110 control) [4, 11]: 120 ± 3.2 % PfCRTEcu1110 control
PfCRT-mediated [3H]CQ transport, trans-stimulation (% PfCRTEcu1110 control) [4, 12]: 132 ± 1.1 % PfCRTEcu1110 control
[3H]CQ transport (% PfCRTDd2 control), trans-stimulation, PfCRTEcu1110 [4, 13]: 36 ± 1.3 % PfCRTEcu1110 control
[3H]CQ transport (% PfCRTDd2 control), trans-stimulation, PfCRTEcu1110 [4, 10]: 40 ± 1.3 % PfCRTEcu1110 control
Uptake of [3H]CQ (% PfCRT3D7 control), cis-inhibition ([5]; [test solute] = 0.5 mM): 99 ± 3.9 % PfCRT3D7 control
Uptake of [3H]CQ (% PfCRT3D7 control), cis-inhibition ([5]; [test solute] = 1 mM): 99 ± 6.3 % PfCRT3D7 control
Uptake of [3H]CQ (% PfCRT3D7 control), cis-inhibition ([5]; [test solute] = 2 mM): 99 ± 5.3 % PfCRT3D7 control
Uptake of [3H]CQ (% non-expressing oocyte control), cis-inhibition ([6]; [test solute] = 1 mM): 99 ± 5.3 % non-expressing oocyte control
Uptake of [3H]CQ (% non-expressing oocyte control), cis-inhibition ([6]; [test solute] = 2 mM): 100 ± 3.7 % non-expressing oocyte control
Uptake of [3H]CQ (% non-expressing oocyte control), trans-stimulation ([7]; [test solute]i = 5 mM): 99 ± 3.4 % non-expressing oocyte control
Uptake of [3H]CQ (% non-expressing oocyte control), trans-stimulation [7, 10]: 100 ± 2.7 % non-expressing oocyte control
PfCRT-mediated [3H]CQ transport, cis-inhibition (% PfCRTDd2 control) ([8]; [test solute] = 0.5 mM): 68 ± 3.7 % PfCRTDd2 control
PfCRT-mediated [3H]CQ transport, cis-inhibition (% PfCRTDd2 control) ([8]; [test solute] = 1 mM): 59 ± 2.1 % PfCRTDd2 control
PfCRT-mediated [3H]CQ transport, cis-inhibition (% PfCRTDd2 control) ([8]; [test solute] = 2 mM): 37 ± 2.0 % PfCRTDd2 control
Uptake of [3H]CQ (% PfCRTEcu1110 control), cis-inhibition ([9]; [test solute] = 0.5 mM): 67 ± 2.1 % PfCRTEcu1110 control
Uptake of [3H]CQ (% PfCRTEcu1110 control), cis-inhibition ([9]; [test solute] = 1 mM): 56 ± 2.8 % PfCRTEcu1110 control
Uptake of [3H]CQ (% PfCRTEcu1110 control), cis-inhibition ([9]; [test solute] = 2 mM): 48 ± 4.8 % PfCRTEcu1110 control
PfCRT-mediated [3H]CQ transport, cis-inhibition (% PfCRTEcu1110 control) ([9]; [test solute] = 0.5 mM): 61 ± 3.1 % PfCRTEcu1110 control
PfCRT-mediated [3H]CQ transport, cis-inhibition (% PfCRTEcu1110 control) ([9]; [test solute] = 1 mM): 51 ± 1.3 % PfCRTEcu1110 control
PfCRT-mediated [3H]CQ transport, cis-inhibition (% PfCRTEcu1110 control) ([9]; [test solute] = 2 mM): 41 ± 3.2 % PfCRTEcu1110 control
[3H]CQ transport (% PfCRTEcu1110 control), cis-inhibition, PfCRTEcu1110 ([9]; cis-inhibition, [test solute] = 2 mM, PfCRT-mediated component (background subtracted), sheet title says normalised to PfCRTDd2 control, mean ± SEM, SEM): 13 ± 0.6 % PfCRTEcu1110 control

From PMC7413254 (Nature Communications, 2020)
